Measured values reported in patent US20240376068A1, “SIGMA LIGAND COMPOUNDS AND USES THEREOF” (Minerva Neurosciences, Inc., priority 2020, published 2024).
pIC50, pKi: −log10 of the molar value. Where two headings read alike, the source gives them in different places.

Tests used:
α1a (h) [1] = biological target: T1, α1a (h) (Homo sapiens (Human), UniProt P35348); assay: α1A adrenergic antagonist effect assay; type: cell-based; details: for inhibition at 1 µM: α1A(h) antagonist effect, read-out: % inhibition of control values (1 μM)
T1 sequence (P35348 whole entry): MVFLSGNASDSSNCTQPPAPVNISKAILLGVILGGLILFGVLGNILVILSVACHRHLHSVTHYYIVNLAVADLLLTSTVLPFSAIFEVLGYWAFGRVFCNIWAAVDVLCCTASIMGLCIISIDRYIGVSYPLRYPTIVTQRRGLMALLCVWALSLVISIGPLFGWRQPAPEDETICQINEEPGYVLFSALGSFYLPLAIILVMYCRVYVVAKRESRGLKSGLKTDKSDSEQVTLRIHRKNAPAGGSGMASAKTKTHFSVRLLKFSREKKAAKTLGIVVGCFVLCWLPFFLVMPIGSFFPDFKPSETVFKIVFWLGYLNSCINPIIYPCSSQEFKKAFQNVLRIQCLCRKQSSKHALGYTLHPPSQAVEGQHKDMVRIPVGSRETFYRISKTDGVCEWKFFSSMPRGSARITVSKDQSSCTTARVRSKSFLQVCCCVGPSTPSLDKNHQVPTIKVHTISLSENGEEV
Method: Assays for determining the antagonist effect on α1A (h) were performed according to the procedure described in Example 21, and the results are represented in Table E below. […] No antagonist effect is observed for the other compounds.

hERG = hERG (Homo sapiens (Human), UniProt Q12809); assay: hERG inhibition assay
Chain of hERG (Q12809 whole entry): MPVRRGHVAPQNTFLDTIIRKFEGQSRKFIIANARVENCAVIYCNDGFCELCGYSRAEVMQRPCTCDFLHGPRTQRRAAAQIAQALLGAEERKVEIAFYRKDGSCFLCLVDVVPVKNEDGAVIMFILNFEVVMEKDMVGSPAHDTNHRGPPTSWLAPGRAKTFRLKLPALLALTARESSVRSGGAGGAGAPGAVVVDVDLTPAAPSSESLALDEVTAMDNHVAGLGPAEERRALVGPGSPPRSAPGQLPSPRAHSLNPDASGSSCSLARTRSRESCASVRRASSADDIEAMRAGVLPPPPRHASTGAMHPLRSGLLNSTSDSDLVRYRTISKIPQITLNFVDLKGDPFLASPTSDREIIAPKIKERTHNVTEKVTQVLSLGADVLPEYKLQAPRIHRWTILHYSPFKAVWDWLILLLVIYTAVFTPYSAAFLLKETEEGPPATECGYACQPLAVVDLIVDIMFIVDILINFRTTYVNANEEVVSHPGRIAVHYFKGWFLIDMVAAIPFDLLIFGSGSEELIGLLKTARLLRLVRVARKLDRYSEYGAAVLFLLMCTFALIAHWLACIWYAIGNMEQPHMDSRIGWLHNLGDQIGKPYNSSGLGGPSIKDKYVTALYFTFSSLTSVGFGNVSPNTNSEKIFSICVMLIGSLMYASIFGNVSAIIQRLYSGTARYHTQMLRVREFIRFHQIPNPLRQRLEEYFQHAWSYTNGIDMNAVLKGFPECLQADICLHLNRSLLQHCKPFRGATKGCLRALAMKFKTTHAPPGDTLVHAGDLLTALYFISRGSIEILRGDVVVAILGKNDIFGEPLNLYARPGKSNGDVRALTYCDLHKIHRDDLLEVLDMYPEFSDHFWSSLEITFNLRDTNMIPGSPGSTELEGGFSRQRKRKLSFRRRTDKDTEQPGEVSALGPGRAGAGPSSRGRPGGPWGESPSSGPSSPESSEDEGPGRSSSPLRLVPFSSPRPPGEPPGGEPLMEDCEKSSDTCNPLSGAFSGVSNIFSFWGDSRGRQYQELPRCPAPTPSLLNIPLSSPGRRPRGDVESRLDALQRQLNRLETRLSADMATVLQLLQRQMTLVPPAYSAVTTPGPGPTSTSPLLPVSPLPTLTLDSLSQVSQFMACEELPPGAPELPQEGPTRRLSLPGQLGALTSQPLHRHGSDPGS

5HT2A = 5HT2A (Homo sapiens (Human), UniProt P28223); assay: 5HT2A agonist effect assay; type: cell-based; details: for activation at 0.1 µM: 100 nM, read-out: % stimulation relative to control (100 nM); for activation at 1 µM: read-out: % stimulation relative to control (1 μM)
Method: Assays for determining the agonist effect on 5HT2A were performed according to the procedure described in Example 21, and the results are represented in Table F below. The compounds in Table F have no agonist effect on 5HT2A at 1 μM and 100 nM.

α1a (h) [2] = biological target: T1, α1a (h); assay: α1A adrenergic agonist effect assay; type: cell-based; details: α1A(h) agonist effect, 1 μM; read-out: % stimulation relative to control (1 μM)
Method: Assays for determining the agonist effect on α1A (h) were performed according to the procedure described in Example 21, and the results are represented in Table D below.

sigma 1 (h) = sigma 1 (h) (Homo sapiens (Human), UniProt Q99720); assay: Sigma-1 binding assay; details: [3H](+)pentazocine, Jurkat cells; read-out: Sigma-1 Ki
Chain of sigma 1 (h) (Q99720 whole entry): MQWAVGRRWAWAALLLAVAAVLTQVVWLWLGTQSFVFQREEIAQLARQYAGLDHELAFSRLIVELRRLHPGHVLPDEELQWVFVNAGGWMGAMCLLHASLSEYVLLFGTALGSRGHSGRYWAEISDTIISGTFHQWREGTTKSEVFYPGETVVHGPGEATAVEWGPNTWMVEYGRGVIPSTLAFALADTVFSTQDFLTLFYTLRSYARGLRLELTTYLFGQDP
Method: (§1) Assays for determining Sigma-1 and Sigma-2 binding values were performed according to Ganapathy, M. E. et al. (1999), J. Pharmacol. Exp. Ther., 289:251-260.

dopamine D2S receptor = dopamine D2S receptor (Homo sapiens (Human), UniProt P14416); assay: Dopamine D2S receptor binding assay (Eurofins Cerep item 1322); details: [3H]7-OH-DPAT, read-out: % inhibition of control specific binding (1 μM)
Chain of dopamine D2S receptor (P14416 other isoform, or with tags, fused parts or gaps): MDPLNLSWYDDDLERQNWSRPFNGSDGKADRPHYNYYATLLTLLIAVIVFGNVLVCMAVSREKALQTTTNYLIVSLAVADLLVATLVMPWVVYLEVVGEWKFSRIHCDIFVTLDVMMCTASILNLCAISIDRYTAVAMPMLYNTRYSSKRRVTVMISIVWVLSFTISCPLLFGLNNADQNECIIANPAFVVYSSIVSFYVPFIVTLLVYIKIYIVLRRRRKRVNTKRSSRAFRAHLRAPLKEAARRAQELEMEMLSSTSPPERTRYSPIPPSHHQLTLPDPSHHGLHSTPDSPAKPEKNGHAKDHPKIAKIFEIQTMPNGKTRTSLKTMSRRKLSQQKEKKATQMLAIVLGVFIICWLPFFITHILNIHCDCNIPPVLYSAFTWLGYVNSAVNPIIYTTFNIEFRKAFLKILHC
Method: Assays for determining dopamine D2S receptor binding values were performed according to Eurofins Cerep protocol item 1322 and the results are represented in Table C below. The parameters used for the assay are described below. […] Common antipsychotics, in contrast, block dopamine receptors (Keefe, et al., J Clin Psychiatry. 2018; 79 (3): 17m11753).

Sigma 2 (h) = Sigma 2 (h) (Homo sapiens (Human), UniProt Q5BJF2); assay: Sigma-2 binding assay
Chain of Sigma 2 (h) (Q5BJF2 whole entry): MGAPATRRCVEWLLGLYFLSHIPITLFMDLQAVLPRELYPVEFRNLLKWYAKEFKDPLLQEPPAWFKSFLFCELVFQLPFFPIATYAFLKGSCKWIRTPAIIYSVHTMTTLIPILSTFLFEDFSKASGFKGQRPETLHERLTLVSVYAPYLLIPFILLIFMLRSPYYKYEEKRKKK
Method: as §1

[3] = [3H]DTG (+1 μM (+)pentazocine), Jurkat cells, read-out: Sigma-2 Ki

SMILES	inhibition at 1 µM (α1a (h) [1])	pIC50 (hERG)	activation at 0.1 µM (5HT2A)	activation at 1 µM (5HT2A)	activation at 1 µM (α1a (h) [2])	pKi (sigma 1 (h))	inhibition at 1 µM (dopamine D2S receptor)	pKi (Sigma 2 (h); [3])	pKi (Sigma 2 (h))	antagonist effect on α1A (h) (in words) (α1a (h) [1])
CC1(C)CCN(C(=O)c2cccc3c2OCO3)Cc2cc(N3CCC(N4CCOCC4)CC3)ccc21 [Compound 84, benzo[d][1,3]dioxol-4-yl(5,5-dimethyl-8-(4-morpholinopiperidin-1-yl)-1,3,4,5-tetrahydro-2H-benzo[c]azepin-2-yl)methanone]	19%	< 5.52	-2%	-2%	0%	7.30 to 8.30	-1%	–	–	–
CC(C)OC(=O)N1CCC(C)(C)c2ccc(N3CCN(C4CCCC4)CC3)cc2C1 [Compound 79, isopropyl 8-(4-cyclopentylpiperazin-1-yl)-5,5-dimethyl-1,3,4,5-tetrahydro-2H-benzo[c]azepine-2-carboxylate]	13%	< 5.52	1%	0%	0%	8.30 to 10.00	19%	7.30 to 8.30	–	–
CC1(C)CN(CCCO)Cc2cc(-c3ccc(C(F)(F)F)cc3)ccc21 [Compound 5, 3-(4,4-dimethyl-7-(4-(trifluoromethyl)phenyl)-3,4-dihydroisoquinolin-2(1H)-yl)propan-1-ol]	–	–	–	–	–	6.30 to 7.00	–	6.30 to 7.00	–	–
CC1(C)CCN(CCCO)Cc2cc(-c3ccc(C(F)(F)F)cc3)ccc21 [Compound 11, 3-(5,5-dimethyl-8-(4-(trifluoromethyl)phenyl)-1,3,4,5-tetrahydro-2H-benzo[c]azepin-2-yl)propan-1-ol]	–	–	–	–	–	< 6.30	–	6.30 to 7.00	–	–
CN1CCN(c2ccc3c(c2)CN(C(=O)OCc2ccccc2)CCC3(C)C)CC1 [Compound 7, benzyl 5,5-dimethyl-8-(4-methylpiperazin-1-yl)-1,3,4,5-tetrahydro-2H-benzo[c]azepine-2-carboxylate]	–	–	–	–	–	7.30 to 8.30	–	6.30 to 7.00	–	–
CC1(C)CCN(C(=O)C2CCCCC2)Cc2cc(N3CCC(N4CCOCC4)CC3)ccc21 [Compound 86, cyclohexyl(5,5-dimethyl-8-(4-morpholinopiperidin-1-yl)-1,3,4,5-tetrahydro-2H-benzo[c]azepin-2-yl)methanone]	-3%	< 5.52	2%	1%	0%	8.30 to 10.00	2%	–	–	–
CCCN1CCN(c2ccc3c(c2)CN(C(=O)OCc2ccccc2)CCC3(C)C)CC1 [Compound 8, benzyl 5,5-dimethyl-8-(4-propylpiperazin-1-yl)-1,3,4,5-tetrahydro-2H-benzo[c]azepine-2-carboxylate]	–	–	–	–	–	8.30 to 10.00	–	7.30 to 8.30	–	–
Cc1cc(-c2ccc3c(c2)CN(CCC(=O)N2CCC(C)CC2)CCC3(C)C)cc(C)n1 [Compound 131, 3-(8-(2,6-dimethylpyridin-4-yl)-5,5-dimethyl-1,3,4,5-tetrahydro-2H-benzo[c]azepin-2-yl)-1-(4-methylpiperidin-1-yl)propan-1-one]	31%	< 5.52	1%	-1%	-1%	–	21%	–	7.00 to 7.30	–
CC1(C)CN(C2CCCC2)Cc2cc(-c3ccc(C(F)(F)F)cc3)ccc21 [Compound 4, 2-cyclopentyl-4,4-dimethyl-7-(4-(trifluoromethyl)phenyl)-1,2,3,4-tetrahydroisoquinoline]	–	–	–	–	–	< 6.30	–	6.30 to 7.00	–	–
CCCN1CCC(C)(C)c2ccc(-c3ccc(C(F)(F)F)cc3)cc2C1 [Compound 12, 5,5-dimethyl-2-propyl-8-(4-(trifluoromethyl)phenyl)-2,3,4,5-tetrahydro-1H-benzo[c]azepine]	–	–	–	–	–	< 6.30	–	7.00 to 7.30	–	–
CC1(C)CN(S(=O)(=O)c2cccc(Cl)c2)Cc2cc(N3CCN(C4CCCC4)CC3)ccc21 [Compound 33, 2-((3-chlorophenyl)sulfonyl)-7-(4-cyclopentylpiperazin-1-yl)-4,4-dimethyl-1,2,3,4-tetrahydroisoquinoline]	9%	< 5.52	0%	-1%	-1%	8.30 to 10.00	13%	8.30 to 10.00	–	–
Cc1cc(-c2ccc3c(c2)CN(CCC(=O)N2CCc4ccccc4C2)CCC3(C)C)cc(C)n1 [Compound 111, 1-(3,4-dihydroisoquinolin-2(1H)-yl)-3-(8-(2,6-dimethylpyridin-4-yl)-5,5-dimethyl-1,3,4,5-tetrahydro-2H-benzo[c]azepin-2-yl)propan-1-one]	57%	5.65	-1%	-2%	0%	–	37%	7.00 to 7.30	–	small antagonist effect
CCCN1Cc2cc(-c3ccc(C(F)(F)F)cc3)ccc2C(C)(C)C1 [Compound 6, 4,4-dimethyl-2-propyl-7-(4-(trifluoromethyl)phenyl)-1,2,3,4-tetrahydroisoquinoline]	–	–	–	–	–	< 6.30	–	< 6.30	–	–
COC(=O)CCN1CCN(c2ccc3c(c2)CN(C(=O)OCc2ccccc2)CCC3(C)C)CC1 [Compound 9, benzyl 8-(4-(3-methoxy-3-oxopropyl)piperazin-1-yl)-5,5-dimethyl-1,3,4,5-tetrahydro-2H-benzo[c]azepine-2-carboxylate]	–	–	–	–	–	7.30 to 8.30	–	7.30 to 8.30	–	–
CC1(C)CN(C(=O)c2cc(F)cc(Cl)c2)Cc2cc(N3CCN(C4CCCC4)CC3)ccc21 [Compound 38, (3-chloro-5-fluorophenyl)(7-(4-cyclopentylpiperazin-1-yl)-4,4-dimethyl-3,4-dihydroisoquinolin-2(1H)-yl)methanone]	51%	5.69	0%	-1%	0%	8.30 to 10.00	1%	8.30 to 10.00	–	small antagonist effect
CC1(C)CCN(C2CCCCC2)Cc2cc(-c3ccc(C(F)(F)F)cc3)ccc21 [Compound 32, 2-cyclohexyl-5,5-dimethyl-8-(4-(trifluoromethyl)phenyl)-2,3,4,5-tetrahydro-1H-benzo[c]azepine]	25%	< 5.52	1%	2%	0%	–	8%	–	7.00 to 7.30	–
CC1(C)CCN(C(=O)C2CCCC2)Cc2cc(N3CCN(C4CCCC4)CC3)ccc21 [Compound 73, cyclopentyl(8-(4-cyclopentylpiperazin-1-yl)-5,5-dimethyl-1,3,4,5-tetrahydro-2H-benzo[c]azepin-2-yl)methanone]	31%	5.59	2%	0%	0%	8.30 to 10.00	6%	7.30 to 8.30	–	–
CC1(C)CN(C(=O)OC2CCCCC2)Cc2cc(N3CCN(C4CCCC4)CC3)ccc21 [Compound 43, cyclohexyl 7-(4-cyclopentylpiperazin-1-yl)-4,4-dimethyl-3,4-dihydroisoquinoline-2(1H)-carboxylate]	15%	5.56	-4%	0%	0%	8.30 to 10.00	11%	8.30 to 10.00	–	–
CC1(C)CCN(C(=O)C2CCCC2)Cc2cc(N3CCC(N4CCOCC4)CC3)ccc21 [Compound 85, cyclopentyl(5,5-dimethyl-8-(4-morpholinopiperidin-1-yl)-1,3,4,5-tetrahydro-2H-benzo[c]azepin-2-yl)methanone]	10%	< 5.52	-2%	0%	1%	7.30 to 8.30	-3%	–	–	–
CN1CCN(c2ccc3c(c2)CN(C(=O)OCc2ccccc2)CC3(C)C)CC1 [Compound 1, benzyl 4,4-dimethyl-7-(4-methylpiperazin-1-yl)-3,4-dihydroisoquinoline-2(1H)-carboxylate]	–	–	–	–	–	6.30 to 7.00	–	6.30 to 7.00	–	–
COC(=O)CCN1CCN(c2ccc3c(c2)CN(C(=O)OCc2ccccc2)CC3(C)C)CC1 [Compound 3, benzyl 7-(4-(3-methoxy-3-oxopropyl)piperazin-1-yl)-4,4-dimethyl-3,4-dihydroisoquinoline-2(1H)-carboxylate]	–	–	–	–	–	6.30 to 7.00	–	7.30 to 8.30	–	–
